Laboratory results reported in patent US10279022B2, “Peptides and combination of peptides for use in immunotherapy against various cancers” (immatics biotechnologies GmbH, priority 2015, dated 2019).

The substances below were run on HLA-A*24 (assay: MHC binding assay by UV-ligand exchange and beta2m ELISA (HLA-A*24)). Details: peptide exchange yield, binding to HLA-A*24; UV-ligand exchange, beta2m ELISA.
Parameters: species or system human
Excerpt: Candidate peptides for T cell based therapies according to the present invention were further tested for their MHC binding capacity (affinity). The individual peptide-MHC complexes were produced by UV-ligand exchange, where a UV-sensitive peptide is cleaved upon UV-irradiation, and exchanged with the peptide of interest as analyzed. Only peptide candidates that can effectively bind and stabilize the peptide-receptive MHC molecules prevent dissociation of the MHC complexes. To determine the yield of the exchange reaction, an ELISA was performed based on the detection of the light chain (β2m) of stabilized MHC complexes. The assay was performed as generally described in Rodenko et al. (Rodenko et al., 2006).
96 well MAXISorp plates (NUNC) were coated over night with 2 ug/ml streptavidin in PBS at room temperature, washed 4× and blocked for 1 h at 37° C. in 2% BSA containing blocking buffer. Refolded HLA-A*02:01/MLA-001 monomers served as standards, covering the range of 15-500 ng/ml. Peptide-MHC monomers of the UV-exchange reaction were diluted 100 fold in blocking buffer. Samples were incubated for 1 h at 37° C., washed four times, incubated with 2 ug/ml HRP conjugated anti-β2m for 1 h at 37° C., washed again and detected with TMB solution that is stopped with […]. Absorption was measured at 450 nm. Candidate peptides that show a high exchange yield (preferably higher than 50%, most preferred higher than 75%) are generally preferred for a generation and production of antibodies or fragments thereof, and/or T cell receptors or fragments thereof, as they show sufficient avidity to the MHC molecules and prevent dissociation of the MHC complexes.

Substance	Peptide exchange
166 (YYVESGKLF; listed as Homo sapiens) [compound 166]	++++ (> = 75% = ++++)
172 (TYTTVPRVAF; listed as Homo sapiens) [compound 172]	++++ (> = 75% = ++++)
187 (TYLRDQHFL; listed as Homo sapiens) [compound 187]	++++ (> = 75% = ++++)
168 (KYQDILETI; listed as Homo sapiens) [compound 168]	++++ (> = 75% = ++++)
177 (VYPWLGALL; listed as Homo sapiens) [compound 177]	++++ (> = 75% = ++++)
195 (TYSVSFPMF; listed as Homo sapiens) [compound 195]	++++ (> = 75% = ++++)
193 (RFHPTPLLL; listed as Homo sapiens) [compound 193]	++++ (> = 75% = ++++)
184 (VFQNFPLLF; listed as Homo sapiens) [compound 184]	++++ (> = 75% = ++++)
202 (VYWDSAGAAHF; listed as Homo sapiens) [compound 202]	++++ (> = 75% = ++++)
186 (IFPQFLYQF; listed as Homo sapiens) [compound 186]	++++ (> = 75% = ++++)
192 (SYALLTYMI; listed as Homo sapiens) [compound 192]	++++ (> = 75% = ++++)
173 (IYSWILDHF; listed as Homo sapiens) [compound 173]	++++ (> = 75% = ++++)
161 (IYLVSIPEL; listed as Homo sapiens) [compound 161]	++++ (> = 75% = ++++)
160 (VYTLDIPVL; listed as Homo sapiens) [compound 160]	++++ (> = 75% = ++++)
179 (MYDSYWRQF; listed as Homo sapiens) [compound 179]	++++ (> = 75% = ++++)
175 (YYEVHKELF; listed as Homo sapiens) [compound 175]	++++ (> = 75% = ++++)
181 (LYLDIINLF; listed as Homo sapiens) [compound 181]	++++ (> = 75% = ++++)

The next lines start with the values.

Peptide exchange	Substance
++++ (> = 75% = ++++)	228 (KYTSWYVAL; listed as Homo sapiens) [compound 228]
++++ (> = 75% = ++++)	274 (AYLHSHALI; listed as Homo sapiens) [compound 274]
++++ (> = 75% = ++++)	217 (FFPPTRQMGLLF; listed as Homo sapiens) [compound 217]
++++ (> = 75% = ++++)	280 (RYPDNLKHLYL; listed as Homo sapiens) [compound 280]
++++ (> = 75% = ++++)	272 (QYLQDAYSF; listed as Homo sapiens) [compound 272]
++++ (> = 75% = ++++)	276 (VYGFQWRHF; listed as Homo sapiens) [compound 276]
++++ (> = 75% = ++++)	216 (QYSSVFKSL; listed as Homo sapiens) [compound 216]
++++ (> = 75% = ++++)	267 (KYMVYPQTF; listed as Homo sapiens) [compound 267]
++++ (> = 75% = ++++)	278 (RYISDQLFTNF; listed as Homo sapiens) [compound 278]
++++ (> = 75% = ++++)	227 (IFLDYEAGTLSF; listed as Homo sapiens) [compound 227]
++++ (> = 75% = ++++)	289 (KYPVEWAKF; listed as Homo sapiens) [compound 289]
++++ (> = 75% = ++++)	211 (YYLEVGKTLI; listed as Homo sapiens) [compound 211]
++++ (> = 75% = ++++)	282 (KFVDSTFYL; listed as Homo sapiens) [compound 282]
++++ (> = 75% = ++++)	271 (LYHDIFSRL; listed as Homo sapiens) [compound 271]
++++ (> = 75% = ++++)	277 (VYQGHTALL; listed as Homo sapiens) [compound 277]
